Values of other authors, collected in patent US20060018842A1, “Composition and method for delivery of phytochemicals” (priority 2004, published 2006).
“Also recorded” adds a separate entry of the source.

Test system: microorganisms named in the source
Details: not given

Molecule | Activity
COc1cc(CNC(=O)CCCC/C=C/C(C)C)ccc1O [Capesicin] | Bacteria

Same assay, conditions: organisms against which activity was observed; General = general antimicrobial

Molecule | Activity
C=CCSSC=CC[S+]([O-])CC=C (mixture of isomers) [ajoene] | General
C=CCS[S+]([O-])CC=C (stereo not drawn) [Allicin] | Bacteria, Candida; also recorded: General
CC1(C)C=Cc2c(cc3occ(-c4ccc(O)cc4)c(=O)c3c2O)O1 [Alpinumisoflavone] | Schiatosome
COc1ccc2cc3[n+](cc2c1OC)CCc1cc2c(cc1-3)OCO2 [Berberine] | Plasmodium; also recorded: Trypansomea, general; also recorded: Bacteria, protozoa; also recorded: Bacteria, Giardia duodenals,; also recorded: trypanosomes; also recorded: Platmodia
Cc1ccc(C(C)C)cc1O [Carvacrol] | General
COc1cc2c(c(OC)c1OC)-c1ccc(OC)c(=O)cc1[C@@H](NC(C)=O)CC2 [Colchicines, reference compound] | General
C=CCc1ccc(O)c(OC)c1 [Eugonol] | General
O=C(CO)[C@@H](O)[C@H](O)[C@H](O)CO [Fructose] | E. coli; also recorded: Bacteria
O=C(O)c1cc(O)c(O)c(O)c1 [Gallic acid] | S. aureus
CC(C)=CCc1cc([C@@H]2CC(=O)c3ccc(O)c(CC=C(C)C)c3O2)ccc1O [Glabrol] | S. aureus, M. tuberculosis
O=C1C=C(O)C(=O)c2ccccc21 [Lawsone] | M. tuberculosis
CC(C)=CCC1=C(O)C(C(=O)CC(C)C)=C(O)C(CC=C(C)C)(CC=C(C)C)C1=O [Lupulone] | General
COc1cc(CCN)cc(OC)c1OC [Mascaline] | General
CC1CCC(C(C)C)C(O)C1 (stereo not drawn) [Menthol, reference compound] | General
CC(Cc1ccc(O)c(O)c1)C(C)Cc1ccc(O)c(O)c1 (stereo not drawn) [Nordihydrogual-aretic acid] | Skin bacteria
CC(C)=CCc1cc(O)c(O)c(CC=C(C)C)c1[C@H]1Oc2c(CC=C(C)C)c(O)cc(O)c2C(=O)[C@@H]1O [Petalostemumol] | Bacteria, fungi
O=C(CCc1ccc(O)cc1)c1c(O)cc(O)cc1O [Phloretin] | General

Molecule | Activity
O=C(/C=C/C=C/c1ccc2c(c1)OCO2)N1CCCCC1 [Piperdine] | Fungi, Lactobacillus,; also recorded: Micrococcus, E. coli; also recorded: E. facecalis
C=C1C=CC(=O)O1 [Protoanemonia] | General
C=C[C@H]1CN2CC[C@H]1C[C@H]2[C@H](O)c1ccnc2ccc(OC)cc12 [Quiniae, reference compound] | Plasmodium spp.
COC(=O)[C@H]1[C@H]2C[C@@H]3c4[nH]c5cc(OC)ccc5c4CCN3C[C@H]2C[C@@H](OC(=O)c2cc(OC)c(OC)c(OC)c2)[C@@H]1OC [Roserpine, reference compound] | General
C/C(=C\CC[C@H](C)[C@@H]1CC[C@]2(C)C3=CC[C@H]4C(C)(C)C(=O)CC[C@]4(C)[C@H]3CC[C@@]12C)C(=O)O [Terebinthone] | General
C=C1C(=O)[C@]23C[C@H]1C[C@@H](O)[C@H]2[C@@]1(CCCC(C)(C)[C@H]1C=O)COC3=O [Trichorabdal A] | Helicobacter pylori
CC1=C(CO)C(=O)O[C@@H]([C@@H](C)[C@H]2CC[C@H]3[C@@H]4C[C@H]5O[C@]56[C@@H](O)C=CC(=O)[C@]6(C)[C@H]4CC[C@]23C)C1 [Withafarin A] | Bacteria, fungi
COc1ccc2c(c1OC)C(=O)O[C@@H]2[C@H]1c2cc3c(cc2CCN1C)OCO3 [hydrastine] | Bacteria, Giardia duodenals,; also recorded: trypanosomes; also recorded: Platmodia
O=C(O)c1ccc(O)cc1O [β-Resorcyclic acid] | Bacteria and viruses
Anthemic acid | M. tuberculosis, S. typhi-; also recorded: murium, S. aureus,; also recorded: holminths
Asiatocoside | M. leprae
Caffaio acids | Viruses, holminths
Catechin | General; also recorded: Shigella; also recorded: Vibrio; also recorded: S. mutans; also recorded: Viruses
Helanine | General
Hexemal | General
Pebatin | Bacteria

Test system: oral carcinoma cell line (KB)
Details: features of caspase-3-mediated apoptosis

Molecule | Cytotoxicity
CCCCCCCC(=O)CCc1ccc(O)c(OC)c1 [[6]-paradol] | dose-dependent cytotoxicity

Same assay, conditions: incubated for 48 h

Molecule | Viable KB cells, % of untreated control
CCCCCCCC(=O)CCc1ccc(O)c(OC)c1 [[6]-paradol] | less than 50%

Test system: mouse skin
Details: not given

Molecule | Protection from tumor inducing agent
CCCCCCCC(=O)CCc1ccc(O)c(OC)c1 [[6]-paradol] | protected mouse skin from a tumor inducing agent

Test system: human breast cancer xenografts
Details: mice

Molecule | Growth and metastasis of xenografts
COc1cc(/C=C/C(=O)CC(=O)/C=C/c2ccc(O)c(OC)c2)ccc1O [curcumin] | reduce the growth and metastasis

Test system: oral cancer cell line KB-1
Details: key protein for gap junction formation

Molecule | Induction of connexin 43
CC(C)=CCC/C(C)=C/C=C/C(C)=C/C=C/C(C)=C/C=C/C=C(C)/C=C/C=C(C)/C=C/C=C(\C)CCC=C(C)C [lycopene] | specifically induced

Same assay, conditions: physiological lycopene concentrations

Molecule | KB-1 cells, % of control cell numbers
CC(C)=CCC/C(C)=C/C=C/C(C)=C/C=C/C(C)=C/C=C/C=C(C)/C=C/C=C(C)/C=C/C=C(\C)CCC=C(C)C [lycopene] | approximately 10%

Test system: breast cancer cell line MCF7
Details: not given

Molecule | IGF-1 stimulated proliferation
CC(C)=CCC/C(C)=C/C=C/C(C)=C/C=C/C(C)=C/C=C/C=C(C)/C=C/C=C(C)/C=C/C=C(\C)CCC=C(C)C [lycopene] | blocked IGF-1 stimulated proliferation

Test system: oral cancer
Details: not given

Molecule | Apoptosis
O=C(/C=C/c1ccc(O)c(O)c1)O[C@@H]1C[C@](O)(C(=O)O)C[C@@H](O)[C@H]1O [CGA, chlorogenic acid] | induced caspase-3-dependent apoptosis

Test system: transformed cells
Details: by activating apoptosis

Molecule | Growth inhibition
epigallocatechin-3-gallate [EGCG] | induce growth inhibition

Test system: normal cell
Details: not given

Molecule | Normal cell growth
epigallocatechin-3-gallate [EGCG] | not affected

Test system: oral squamous carcinoma cells
Details: not given

Molecule | Apoptosis
epigallocatechin-3-gallate [EGCG] | induce apoptosis

Test system: normal human epidermal keratinocytes
Details: not given

Molecule | Survival
epigallocatechin-3-gallate [EGCG] | survive

Test system: oral squamous cell carcinoma (OSCC) cells
Details: oral tumor cells

Molecule | Selectivity of cytotoxicity
COc1ccc2c3c1O[C@H]1C(=O)C=C[C@H]4[C@@H](C2)N(C)CC[C@]314 [codeinone] | selectively higher in oral tumor cells

Same assay, conditions: targets the mitochondria

Molecule | Apoptosis
COc1ccc2c3c1O[C@H]1C(=O)C=C[C@H]4[C@@H](C2)N(C)CC[C@]314 [codeinone] | caspase-3-dependent apoptosis
